The values that follow come from article PMC3539403, “Molecular Characterization of Lipopolysaccharide Binding to Human α-1-Acid Glycoprotein” (Journal of Lipids, 2012).

Entries after “also recorded” stand apart in the source; their conditions may differ. Like-named read-outs stand apart in the source and are kept apart here.

The subject of data set [1] is human AGP. As to the kind of experiment: Fluorometric assay of FITC-E. coli O111:B4 LPS binding to AGP. The conditions noted are these: chlorpromazine 20 μM final concentration; FITC-LPS 5 μM, AGP 25 μM. As for the experimental part:
[…] Fluorescence was measured using a Cary Eclipse Fluorescence spectrophotometer (Varian, Mulgrave, VIC, Australia) set at an excitation wavelength specific for the FITC fluorophore (Exλ 494 nm). Slit widths were set to 5 nm for both the excitation and emission monochromators. The emission spectrum was collected in the 500→650 nm range.

For data set [2], the system named is human AGP. Briefly: SPR assay of AGP binding to lipid A/Kdo2-lipid A in DMPC hybrid SUV bilayer (L1 chip). The conditions noted are these: 10% (mol/mol) lipid in DMPC bilayer; Kdo2-lipid A response at AGP concentrations higher than 7 μM. As for the experimental part:
In the case of lipid A and Kdo2-lipid A binding, a L1 sensor chip was used (GE Health Care, Melbourne Australia). Small unilamellar vesicles (SUVs) were prepared in PBS by sonication and extrusion. Lipids (DMPC, lipid A, and Kdo2-lipid A) were dissolved in ethanol-free chloroform in 25 mL round-bottom flasks. 10% (mol/mol) of lipid A or Kdo2-lipid A was added into DMPC solution to make 10% lipid A/Kdo2-lipid A-DMPC mixtures, which were then deposited as a thin film by removal of the solvent (chloroform) under reduced pressure on a rotary evaporator and dried under high vacuum for at least 2 hours. PBS was then added into each flask to give a 1 mM suspension, which was sonicated 5 min for 5 times. […] The SUVs were then injected into the flow cells of the L1 sensor chip for 2000 sec at a low flow rate of 2 μL/min to form a bilayer membrane model on the chip surface. Then, a series of AGP solutions was injected across the flow cells at a flow rate of 30 μL/min, having an injection phase of 180 s and a dissociation phase of 300 s. A regeneration step was added before and after every cycle using 40 mM octyl-glucoside, which cleans the chip surface for a new cycle. Pure DMPC bilayer was applied as a reference and all data used in analysis were reference-subtracted.

For another data set, the system named is K. pneumoniae. On the set-up: method as in PMID 10809735. The following applies: intraperitoneal, 10 mg, 2 h prior to lethal challenge of K. pneumoniae; cited from earlier work.
The next data set deals with HEK293 cells. As to the kind of experiment: Cytotoxicity of LPS to HEK293 cells (Alamar Blue cell viability), with or without AGP. Type of data set: cell-based. The conditions noted are these: LPS 100 μg/mL, AGP 0-1 mg/mL. The protocol:
HEK293 cell line was purchased from American Type Culture Collection (ATCC). The cells were cultured in DMEM (Invitrogen, Australia) containing 10% fetal bovine serum at 37°C, 5% CO2. Serum-free media were used in cytotoxicity assays. Cytotoxicity of LPS to HEK293 cells was determined using Alamar Blue cell viability reagent (Invitrogen, Australia). In brief, HEK293 cells were seeded as 2 × 10^4 cells per well in a clear 96-well plate and incubated for 24 hr at 37°C, 5% CO2. Then the media were replaced with serum-free media, which contained AGP and LPS (100 μg/mL). After a 24 hr incubation, 10 μL of Alamar Blue reagent were added per well and incubated at 37°C for 1 hr. Then the fluorescence intensity was read using Polar star Omega with excitation/emission wavelengths of 560/590.

The nature of data set [3]: LPS binding affinity of plasma binding proteins. The conditions noted are these: AGP, this study's SPR data.
Details of data set [4]: method as in PMID 12887306, PMID 11739189. The conditions noted are these: cited from earlier work.
Data set [5] has as its system meningococcal endotoxemia mouse model. On the set-up: method as in PMID 9179623. The conditions noted are these: intraperitoneal, 8 mg, 2 h prior to LPS challenge; cited from earlier work.

On to `CN(C)CCCN1c2ccccc2Sc2ccc(Cl)cc21` [chlorpromazine], for which the “change in fluorescence emission of the FITC-LPS:AGP complex” value with human AGP [1] is “decrease in fluorescence emission”.

Consider `CCCCCCCCCCCCCC(=O)O[C@H](CCCCCCCCCCC)CC(=O)O[C@@H]1[C@@H](NC(=O)C[C@@H](CCCCCCCCCCC)OC(=O)CCCCCCCCCCC)[C@H](OC[C@H]2O[C@H](OP(=O)(O)O)[C@H](NC(=O)C[C@H](O)CCCCCCCCCCC)[C@@H](OC(=O)C[C@H](O)CCCCCCCCCCC)[C@@H]2O)O[C@H](CO[C@]2(C(=O)O)C[C@@H](O[C@]3(C(=O)O)C[C@@H](O)[C@@H](O)[C@@H]([C@H](O)CO)O3)[C@@H](O)[C@@H]([C@H](O)CO)O2)[C@H]1OP(=O)(O)O` [Kdo2-lipid A], for which the “specific AGP binding to lipid in hybrid SUVs” value in the data set on human AGP [2] is on record as “dose-dependent response; also recorded: very weak”.

diphosphoryl lipid A: the “specific AGP binding to lipid in hybrid SUVs” value in the data set on human AGP [2] is listed as “no specific AGP binding detected”.

On to “AGP: human α-1-acid glycoprotein from plasma, F1:S:A variants 40:30:30”, for which the survival of mice result in the data set with K. pneumoniae is “increased the survival of mice”. The “effect of AGP on the cytotoxic effect of LPS” value in the data set with HEK293 cells is given as “ameliorated in a concentration-dependent manner”. Also, the LPS binding affinity result in data set [3] is given as “high micromolar”.

B1: LBP: lipopolysaccharide-binding protein, LPS-specific plasma binding protein (protein, UniProt P18428 26-481, looked up)
Lipopolysaccharide-binding …: ANPGLVARITDKGLQYAAQEGLLALQSELLRITLPDFTGDLRIPHVGRGRYEFHSLNIHSCELLHSALRPVPGQGLSLSISDSSIRVQGRWKVRKSFFKLQGSFDVSVKGISISVNLLLGSESSGRPTVTASSCSSDIADVEVDMSGDLGWLLNLFHNQIESKFQKVLESRICEMIQKSVSSDLQPYLQTLPVTTEIDSFADIDYSLVEAPRATAQMLEVMFKGEIFHRNHRSPVTLLAAVMSLPEEHNKMVYFAISDYVFNTASLVYHEEGYLNFSITDDMIPPDSNIRLTTKSFRPFVPRLARLYPNMNLELQGSVPSAPLLNFSPGNLSVDPYMEIDAFVLLPSSSKEPVFRLSVATNVSATLTFNTSKITGFLKPGKVKVELKESKVGLFNAELLEALLNYYILNTFYPKFNDKLAEGFPLPLLKRVQLYDLGLQIHKDFLFLGANVQYMRV
For the molecule B1, in data set [4], the LPS binding affinity entry is “nanomolar”.

B2: BPI: bactericidal/permeability-increasing protein (protein, UniProt P17213 32-487, looked up)
Bactericidal …: VNPGVVVRISQKGLDYASQQGTAALQKELKRIKIPDYSDSFKIKHLGKGHYSFYSMDIREFQLPSSQISMVPNVGLKFSISNANIKISGKWKAQKRFLKMSGNFDLSIEGMSISADLKLGSNPTSGKPTITCSSCSSHINSVHVHISKSKVGWLIQLFHKKIESALRNKMNSQVCEKVTNSVSSELQPYFQTLPVMTKIDSVAGINYGLVAPPATTAETLDVQMKGEFYSENHHNPPPFAPPVMEFPAAHDRMVYLGLSDYFFNTAGLVYQEAGVLKMTLRDDMIPKESKFRLTTKFFGTFLPEVAKKFPNMKIQIHVSASTPPHLSVQPTGLTFYPAVDVQAFAVLPNSSLASLFLIGMHTTGSMEVSAESNRLVGELKLDRLLLELKHSNIGPFPVELLQDIMNYIVPILVLPRVNEKLQKGFPLPTPARVQLYNVVLQPHQNFLLFGADVVYK
For B2, the LPS binding affinity entry in data set [4] is listed as “nanomolar”.

B3: bovine AGP: bovine α-1-acid glycoprotein (protein, UniProt Q3SZR3 19-202, looked up)
Alpha-1-acid glycoprotein: QSPECANLMTVAPITNATMDLLSGKWFYIGSAFRNPEYNKSARAIQAAFFYLEPRHAEDKLITREYQTIEDKCVYNCSFIKIYRQNGTLSKVESDREHFVDLLLSKHFRTFMLAASWNGTKNVGVSFYADKPEVTQEQKKEFLDVIKCIGIQESEIIYTDEKKDACGPLEKQHEEERKKETEAS
With B3, the protection against sepsis result in data set [5] was “protect against sepsis”.
